Data taken from ChEMBL document CHEMBL5512605, “Targeted regulated cell death with small molecule compounds in colorectal cancer: Current perspectives of targeted therapy and molecular mechanisms” (Eur J Med Chem, 2024).
pIC50: −log10 of the molar value. One block for each compound: values may come before it.

Key:
[1] = system: SW480; experiment: Cytotoxicity against human SW480 cells assessed as inhibition of cell proliferation measured after 48 hrs by MTT assay; assay type: functional, cell-based
[2] = system: RKO; experiment: Cytotoxicity against human RKO cells assessed as inhibition of cell proliferation measured after 48 hrs by MTT assay; assay type: functional, cell-based
[3] = system: HCT-116; experiment: Cytotoxicity against human HCT-116 cells assessed as inhibition of cell proliferation measured after 48 hrs by MTT assay; assay type: functional, cell-based; settings: HCT-116, 48 h
[4] = system: HCT-116; experiment: Antiproliferative activity against human HCT-116 cells assessed as inhibition of cell growth measured upto 72 hrs by CCK-8 method; assay type: functional, cell-based; settings: HCT-116, 72 h
[5] = system: LoVo; experiment: Antiproliferative activity against human LoVo cells measured after 48 hrs by MTT assay; assay type: functional, cell-based
[6] = system: HCT-116; experiment: Antiproliferative activity against human HCT-116 cells measured after 48 hrs by MTT assay; assay type: functional, cell-based; settings: HCT-116, 48 h
[7] = system: HCT-8; experiment: Antiproliferative activity against human HCT-8 cells measured after 48 hrs by MTT assay; assay type: functional, cell-based; settings: HCT-8, 48 h
[8] = system: HCT-116; experiment: Antiproliferative activity against human HCT-116 cells assessed as inhibition of cell growth; assay type: functional, cell-based
[9] = system: SW-620; experiment: Antiproliferative activity against human SW620 cells assessed as inhibition of cell growth; assay type: functional, cell-based
[10] = system: SW-620; experiment: Cytotoxicity against human SW620 cells assessed as inhibition of cell proliferation measured after 48 hrs by MTT assay; assay type: functional, cell-based; settings: SW-620, 48 h
[11] = system: SW837; experiment: Antiproliferative activity against human SW837 cells; assay type: functional
[12] = system: HCT-116; experiment: Antiproliferative activity against human HCT-116 cells assessed as inhibition of cell viability measured after 24 hrs by CCK-8 method; assay type: functional, cell-based; settings: HCT-116, 24 h
[13] = system: HT-29; experiment: Antiproliferative activity against human HT-29 cells assessed as inhibition of cell viability measured after 24 hrs by CCK-8 method; assay type: functional, cell-based; settings: HT-29, 24 h
[14] = system: SW480; experiment: Antiproliferative activity against human SW480 cells; assay type: functional, cell-based; settings: Homo sapiens, SW480
[15] = system: HCT-116; experiment: Antiproliferative activity against human HCT-116 cells; assay type: functional, cell-based; settings: Homo sapiens, HCT-116
[16] = system: HT-29; experiment: Antiproliferative activity against human HT-29 cells measured after 72 hrs by SRB method; assay type: functional, cell-based; settings: HT-29, 72 h
[17] = system: HCT-116; experiment: Antiproliferative activity against human HCT-116 cells measured after 72 hrs by SRB method; assay type: functional, cell-based; settings: HCT-116, 72 h
[18] = system: HCT-116; experiment: Cytotoxicity against human HCT-116 cells measured after 48 hrs by MTT colorimetric assay; assay type: functional, cell-based; settings: HCT-116, 48 h
[19] = system: SW480; experiment: Antiproliferative activity against human SW480 cells assessed as inhibition of cell growth incubated for 24 hrs by CCK-8 method; assay type: functional, cell-based; settings: SW480, 24 h
[20] = system: HT-29; experiment: Antiproliferative activity against human HT-29 cells assessed as inhibition of cell viability incubated for 24 hrs by CCK-8 method; assay type: functional, cell-based; settings: HT-29, 24 h
[21] = system: COLO 320; experiment: Antiproliferative activity in human COLO 320 cells incubated for 24 hrs by MTT assay; assay type: functional
[22] = system: Caco-2; experiment: Antiproliferative activity against human Caco-2 cells measured after 24 hrs by MTT assay; assay type: functional, cell-based; settings: Caco-2, 24 h
[23] = system: SW-620; experiment: Antiproliferative activity against human SW620 cells; assay type: functional, cell-based
[24] = system: HCT-116; experiment: Cytotoxicity against human HCT-116 cells assessed as inhibition of cell proliferation measured after 72 hrs by SRB method; assay type: functional, cell-based
[25] = system: DLD-1; experiment: Antiproliferative activity against human DLD-1 cells assessed as inhibition of cell viability by CCK-8 method; assay type: functional, cell-based
[26] = system: HCT-116; experiment: Antiproliferative activity against human HCT-116 cells assessed as inhibition of cell viability by CCK-8 method; assay type: functional, cell-based
[27] = system: SW 1116; experiment: Antiproliferative activity against human SW 1116 cells incubated for 24 hrs by CCK-8 method; assay type: functional, cell-based
[28] = system: SW480; experiment: Antiproliferative activity against human SW480 cells incubated for 24 hrs by CCK-8 method; assay type: functional, cell-based

Compound: C[C@@H]1CC[C@@]2(OC1)O[C@H]1C[C@H]3[C@@H]4CC=C5C[C@H](O[C@@H]6O[C@H](CO)[C@@H](O)[C@H](O[C@@H]7O[C@H](CO)[C@@H](O)[C@H](O)[C@H]7O)[C@H]6O[C@@H]6O[C@@H](C)[C@H](O)[C@@H](O)[C@H]6O)CC[C@]5(C)[C@H]4CC[C@]3(C)[C@H]1[C@@H]2C
pIC50 ([1]; Homo sapiens, SW480, 48 h): 5.57 | pIC50 [2]: 5.51 | pIC50 [3]: 5.26

pIC50 [4]: 2.10
Compound: CC(=O)Oc1ccccc1C(=O)O [ASPIRIN]

pIC50 [5]: 7.20 | pIC50 [6]: 7.54 | pIC50 [7]: 6.27
Compound: CO[C@H]1C(=O)[C@]2(C)[C@@H](OC)C[C@H]3OC[C@@]3(OC(C)=O)[C@H]2[C@H](OC(=O)c2ccccc2)[C@]2(O)C[C@H](OC(=O)[C@H](O)[C@@H](NC(=O)OC(C)(C)C)c3ccccc3)C(C)=C1C2(C)C [CABAZITAXEL]

Compound: CC1=C(O)C(=O)C=C2C1=CC=C1[C@@]2(C)CC[C@@]2(C)[C@@H]3C[C@](C)(C(=O)O)CC[C@]3(C)CC[C@]12C [CELASTROL]
pIC50 [8]: 6.54 | pIC50 [9]: 6.54

Compound: CC(=O)O[C@H]1[C@H]2O[C@]23[C@@H]2CC[C@@H]4C[C@@H](O)CC[C@]4(C)[C@H]2CC[C@]3(C)[C@H]1c1ccc(=O)oc1 [CINOBUFAGIN]
pIC50 [2]: 6.74 | pIC50 [3]: 6.11 | pIC50 [10]: 6.44

Compound: Cc1ncsc1-c1ccc([C@H](C)NC(=O)[C@@H]2C[C@@H](O)CN2C(=O)[C@@H](NC(=O)CCCCCC(=O)N2CCN(CC[C@H](CSc3ccccc3)Nc3ccc(S(=O)(=O)NC(=O)c4ccc(N5CCN(CC6=C(c7ccc(Cl)cc7)CCC(C)(C)C6)CC5)cc4)cc3S(=O)(=O)C(F)(F)F)CC2)C(C)(C)C)cc1 [DT-2216]
IC [11]: 1 µM

pIC50 [12]: 4.53 | pIC50 [13]: 4.43
Compound: O=c1cc(-c2ccc(O)cc2)oc2cc(O)c([C@@H]3O[C@H](CO)[C@@H](O)[C@H](O)[C@H]3O)c(O)c12 [ISOVITEXIN]

pIC50 [14]: 5.30 | pIC50 [15]: 5.30
Compound: COc1ccc(-c2cc(=O)c3c(O)c(OC)c(O)c(OC)c3o2)cc1 [NEVADENSIN]

pIC50 [16]: 5.33 | pIC50 [17]: 6.49
Compound: O=C(Nc1ccc([N+](=O)[O-])cc1Cl)c1cc(Cl)ccc1O [NICLOSAMIDE]

Compound: CC(=O)Oc1ccccc1C(=O)Nc1ncc([N+](=O)[O-])s1 [NITAZOXANIDE]
pIC50 [18]: 4.95

pIC50 [19]: 4.48 | pIC50 [20]: 4.56
Compound: CC(CN1c2ccccc2Sc2ccccc21)N(C)C (configuration not stated) [PROMETHAZINE]

Compound: CC(C)c1cccc(C(C)C)c1O [PROPOFOL]
IC ([1]; time 48 hrs): 12.5 µM

Compound: O=c1c(O)c(-c2ccc(O)c(O)c2)oc2cc(O)cc(O)c12 [QUERCETIN]
IC [21]: 50 µM

Compound: CC[C@@H](C(=O)[C@@H](C)[C@@H](O)[C@H](C)[C@@H]1O[C@@H]([C@@H](CC)C(=O)O)CC[C@@H]1C)[C@H]1O[C@]2(C=C[C@@H](O)[C@]3(CC[C@@](C)([C@H]4CC[C@](O)(CC)[C@H](C)O4)O3)O2)[C@H](C)C[C@@H]1C [SALINOMYCIN]
pIC50 [22]: 4.80

Compound: C[S+]([O-])CCCCN=C=S (configuration not stated) [SULFORAPHANE]
pIC50 [22]: 4.26

pIC50 [23]: 5.61
Compound: CC(/C=C/C(=O)NO)=C\[C@@H](C)C(=O)c1ccc(N(C)C)cc1 [TRICHOSTATIN]

Compound: C/C=C\C(=O)O[C@@H]1C[C@H]2O[C@@H]3C=C(C)C(=O)C[C@]3(C)[C@]1(C)[C@]21CO1 [TRICHOTHECIN]
pIC50 [24]: 6.60

Compound: CETUXIMAB
IC [25]: 100 µM | IC [26]: 100 µM

pIC50 [28]: 4.81
Compound: IVERMECTIN
pIC50 [27]: 5.20
